In ChEMBL document CHEMBL1629570, “Posaconazole mono- or combination therapy for treatment of murine zygomycosis” (Antimicrob Agents Chemother, 2009):
Calls of active or inactive are those of the source. The rule behind the calls is not given here.

Experiments:
Type in all cases: functional, organism-based
[1] = system: Rhizopus arrhizus; experiment: Antifungal activity against Rhizopus oryzae 99-880 infected in diabetic ketoacidotic BALB/c mouse assessed as improved time to death at 10 mg/kg/day, po administered 24 hrs post infection for 4 days
[2] = system: Rhizopus arrhizus; experiment: Antifungal activity against Rhizopus oryzae 99-880 infected in diabetic ketoacidotic BALB/c mouse assessed as improved time to death at 30 mg/kg/day, po administered 24 hrs post infection for 4 days
[3] = system: Rhizopus arrhizus; experiment: Antifungal activity against Rhizopus oryzae 99-880 infected in diabetic ketoacidotic BALB/c mouse assessed as improved time to death at 60 mg/kg/day, po administered 24 hrs post infection for 4 days
[4] = system: Rhizopus arrhizus; experiment: Antifungal activity against Rhizopus oryzae 99-880 infected in diabetic ketoacidotic mouse assessed as mouse survival at 10 mg/kg/day, po administered 24 hrs post infection for 4 days
[5] = system: Rhizopus arrhizus; experiment: Antifungal activity against Rhizopus oryzae 99-880 infected in diabetic ketoacidotic mouse assessed as mouse survival at 30 mg/kg/day, po administered 24 hrs post infection for 4 days
[6] = system: Rhizopus arrhizus; experiment: Antifungal activity against Rhizopus oryzae 99-880 infected in diabetic ketoacidotic mouse assessed as mouse survival at 60 mg/kg/day, po administered 24 hrs post infection for 4 days
[7] = system: Rhizopus arrhizus; experiment: Antifungal activity against Rhizopus oryzae 99-880 infected in diabetic ketoacidotic mouse assessed as reduction of fungal burden in kidneys at 60 mg/kg/day, po administered 8 hrs post infection for 3 days; conditions: Kidney
[8] = system: Rhizopus arrhizus; experiment: Antifungal activity against Rhizopus oryzae 99-880 infected in diabetic ketoacidotic mouse assessed as reduction of fungal burden in brain at 60 mg/kg/day, po administered 8 hrs post infection for 3 days
[9] = system: Rhizopus arrhizus; experiment: Antifungal activity against Rhizopus oryzae 99-880 infected in neutropenic BALB/c mouse assessed as improved time to death at 60 mg/kg/day, po administered 24 hrs post infection for 4 days
[10] = system: Rhizopus arrhizus; experiment: Antifungal activity against Rhizopus oryzae 99-880 infected in neutropenic mouse assessed as reduction of fungal burden in kidneys at 60 mg/kg/day, po administered 8 hrs post infection for 3 days; conditions: Kidney
[11] = system: Rhizopus arrhizus; experiment: Antifungal activity against Rhizopus oryzae 99-880 infected in neutropenic mouse assessed as reduction of fungal burden in brain at 60 mg/kg/day, po administered 8 hrs post infection for 3 days

CC[C@@H]([C@H](C)O)n1ncn(-c2ccc(N3CCN(c4ccc(OC[C@@H]5CO[C@@](Cn6cncn6)(c6ccc(F)cc6F)C5)cc4)CC3)cc2)c1=O
Activity [1]: inactive
Activity [2]: inactive
Activity [3]: Active
Activity [4]: inactive
Activity [5]: inactive
Activity [6]: inactive
Activity [7]: inactive
Activity [8]: inactive
Activity [9]: inactive
Activity [10]: inactive
Activity [11]: inactive
